We go through four compounds from patent US20250195553A1, “Use of Genipin-1-B-D-Gentiobioside in Preparation of Drug” (Guizhou Bailing Group Pharmaceutical Co., Ltd., priority 2023, published 2025).

Each structure is given as a SMILES string. Where two headings read alike, the source gives them in different places.

For assay [1], the system named is Mycoplasma Pneumoniae (MP). The assay is described as follows: Inflammatory factors in lung tissue of MP-infected mice (ELISA). The class given is in vivo, BALB/C mice. The conditions noted are these: 42 mg/kg. Here is the method: […] Each group consisted of 10 mice, with an equal number of males and females. Except for the normal control group, all mice were lightly anesthetized with isoflurane and infected intranasally with Mycoplasma Pneumoniae (50 μl per mouse) for three consecutive days. On the day of infection, each treatment group received nebulized medication once daily for four consecutive days, while the normal control group and model control group received nebulized saline under the same conditions. On the fifth day, the mice were weighed, sacrificed by cervical dislocation, and their lung tissues were dissected, weighed, and used to calculate the lung index and lung index inhibition rate; measure the levels of inflammatory factors in the lung tissue; measure the serum CRP levels; and conduct pathological examinations of the lung tissue. The results were statistically analyzed using the t-test for intergroup comparisons.
(1) Sample Collection and Storage: Tissue Homogenate Samples: After weighing, lung tissues were collected from 8 mice in each group and stored at −80° C. The MP Fastprep-24 5G Rapid Sample Preparation System was used to homogenize the tissues, followed by centrifugation at […] and 3000 r/min for 10 minutes using a low-temperature high-speed centrifuge. The supernatant was then aspirated, aliquoted, and stored at −80° C. for future use, avoiding repeated freeze-thaw cycles.
(2) The microplate, which had been equilibrated to room temperature, was removed from the sealed bag. Different concentrations of standards were added to the corresponding wells, with 50 μL per well. For experimental samples, 10 μL of sample was added to each well, followed by 40 μL of diluent. Except for the blank wells, 100 μL of HRP (Horseradish Peroxidase) was added to each well. The reaction wells were sealed with sealing tape and incubated at 37° C. for 1 hour. The plate was then washed with wash buffer four times. After the final wash, the plate was inverted and all residual liquid was patted dry on absorbent paper. 50 μL of both Substrate A and Substrate B were added to each well. The reaction wells were then sealed with sealing tape and incubated at 37° C. for 15 minutes. After that, 50 μL of stop solution was added to each well, and the absorbance at 450 nm was measured using a microplate reader within 15 minutes. The results were then calculated.
On the technique in general: In an ELISA, binding on a coated surface is turned into a signal by an enzyme label.

Assay [2] deals with Mycoplasma Pneumoniae (MP). The assay is described as follows: Pathological changes in lung tissue of MP-infected mice (HE staining). Format: in vivo, BALB/C mice. The arrangement: Alveolitis Lesion Degree / Bronchial Damage / Histological Damage Degree: scale not given here. The conditions noted are these: Azithromycin Group. Here is the method:
Fifty BALB/C mice, weighing 14±1 g, were randomly divided into five groups: a normal control group, a model control group, an azithromycin control group, a high-dose Genipin-1-β-D-gentiobioside group (75 mg/ml) with 15-minute nebulization, and a low-dose Genipin-1-β-D-gentiobioside group (37.5 mg/ml) with 15-minute nebulization. Each group consisted of 10 mice, with an equal number of males and females. Except for the normal control group, all mice were lightly anesthetized with isoflurane and infected intranasally with Mycoplasma Pneumoniae (50 μl per mouse) for three consecutive days. On the day of infection, each treatment group received nebulized medication once daily for four consecutive days, while the normal control group and model control group received nebulized saline under the same conditions. On the fifth day, the mice were weighed, sacrificed by cervical dislocation, and their lung tissues were dissected, weighed, and used to calculate the lung index and lung index inhibition rate; measure the levels of inflammatory factors in the lung tissue; measure the serum CRP levels; and conduct pathological examinations of the lung tissue. The results were statistically analyzed using the t-test for intergroup comparisons.
2.4 Pathological Changes in Mouse Lung Tissue (HE Staining Method)

Assay [3] deals with Mycoplasma Pneumoniae (MP). The experiment in a line: Mycoplasma pneumoniae-infected mouse pneumonia model: lung index. The class given is in vivo, BALB/C mice. The arrangement: First Batch Inhibition Rate: unit not given here.
Assay [4] deals with Human Coronavirus OC43 (HCoV-OC43). The class given is in vivo. The conditions noted are these: mouse, in vivo.
Assay [5] shares this test system. Format: in vivo. The conditions noted are these: 90 mg/kg administration by gavage.
The test system of assay [6] is Human Respiratory Syncytial Virus (RSV). The experiment in a line: RSV viral load in mouse lung tissue (RT-PCR), nebulization. The class given is in vivo. The conditions noted are these: dosage 82.5 (mg/ml), nebulization time 25 min. The protocol:
[…] Each group consisted of 10 mice, with an equal number of males and females. Except for the normal control group, all mice were lightly anesthetized with isoflurane and infected with respiratory syncytial virus (RSV) via intranasal administration, with each mouse receiving 35 μl of the virus. On the day of infection, the treatment groups began inhalation administration. Each group received nebulization for 25 minutes once daily for four consecutive days. The normal control group and the model control group received nebulized saline under the same conditions. On the fifth day, after weighing, the mice were sacrificed by cervical dislocation, and their lung tissues were dissected, weighed, and used to calculate the lung index and lung index inhibition rate. The lung tissues were also retained for virus load, pathological examination, and inflammatory factor detection. The results were statistically analyzed using the t-test for intergroup comparisons.
After dissecting the mice, the lung tissues were collected and stored in separate containers at −80° C. in a low-temperature freezer. The lung tissues were then removed from the −80° C. freezer and placed in a clean mortar. A small amount of liquid nitrogen was poured into the mortar, and the tissues were ground into powder using a pestle. The powder was collected in a 1.5 ml centrifuge tube, and 1 ml of TRIzol Reagent was immediately added. The tube was gently tapped at the bottom to mix the sample and ensure it was resuspended as soon as possible. The centrifuge tube was then placed horizontally at room temperature and incubated for 20 minutes. Next, it was centrifuged at 4° C. and 12,000 rpm for 10 minutes. The clear supernatant was transferred to a new 1.5 ml centrifuge tube, and 0.2 ml of chloroform was added. The tube was tightly capped, vigorously shaken for 15 seconds, and then incubated at room temperature for 2-3 minutes until the liquid separated into layers. After centrifuging at 4° C. and 12,000 rpm for 15 minutes, the transparent supernatant was carefully transferred to a new 1.5 ml centrifuge tube. Then, 0.5 ml of isopropanol was added, mixed well, and incubated at room temperature for 30 minutes. Following centrifugation at 4° C. and 12,000 rpm for 10 minutes, the supernatant was discarded. The precipitate was gently washed with 1 ml of 75% ethanol (to allow the white precipitate to float slightly), and then centrifuged at 4° C. and 7,500 rpm for 5 minutes. The supernatant was completely aspirated, and the RNA precipitate was briefly dried for 5-10 minutes. The precipitate was then dissolved in 20 μl of DEPC (Diethylpyrocarbonate)-treated water and stored in a −80° C. low-temperature freezer.
Treatment of Control Nucleic Acid: DEPC-H2O was used as a negative control. For the positive control, a series of four concentrations were prepared by gradient dilution at 10^7, 10^6, 10^5, and 10^4 copies/ml.
Reagent Preparation: Mix n×18 μl of RSV nucleic acid fluorescent PCR detection mixture, n×1 μl of internal control, and n×1 μl of RT-PCR enzyme (where n is the number of reaction tubes). Shake vigorously for a few seconds and centrifuge at 3000 rpm for a few seconds.
Sample Addition: Dispense 20 μl of the above mixture into each PCR tube. Then, add 5 μl of sample nucleic acid extract, DEPC-H2O, and positive control to the respective PCR tubes. Tightly close the tube caps, centrifuge for a few seconds to ensure all liquids are at the bottom, and immediately proceed with PCR amplification.
PCR Amplification: Place the reaction tubes in a quantitative fluorescent PCR instrument. Set the cycling parameters as follows: 45° C. for 10 minutes; 95° C. for 15 minutes; then 40 cycles of 95° C. for 15 seconds→60° C. for 60 seconds. Single-point fluorescent detection is performed at 60° C., with a reaction volume of 25 μl.
Fluorescent Channel Selection: Select the FAM and HEX/VIC/JOE channels for detection. […]

In assay [7] the test system is Lipopolysaccharide (LPS)-induced pneumonia model in mice. The experiment in a line: LPS-induced pneumonia model in mice, intravenous injection: lung index. The class given is in vivo, ICR mice. The conditions noted are these: 50 mg/kg i.v. once daily 2 days. Here is the method: (§1) Sixty healthy mice, weighing 18˜20 g, half male and half female, were selected and randomly grouped after stratification by weight; they were divided into a normal control group, a model control group, three Genipin-1-β-D-gentiobioside dose groups (150 mg/kg/d, 75 mg/kg/d, 37.5 mg/kg/d), and a positive control drug Sivelestat Sodium 50 mg/kg/d group, with 10 mice in each group, half male and half female. After grouping, each treatment group was administered intravenously at 20 ml/kg once daily for 2 consecutive days, while the normal control group and model control group were injected with physiological saline. One hour after the second dose, except for the normal control group, the other groups were lightly anesthetized with isoflurane, and a 20 mg/ml LPS physiological saline solution was administered intranasally to the mice at 0.05 ml/mouse to induce the pneumonia model. Six hours after infection, the animals were sacrificed, dissected, and their lungs were removed and weighed to calculate the lung index (lung index=lung weight/body weight×100%).

For assay [8] the test system is unchanged. The experiment in a line: Inflammatory factors in lung tissue of LPS-induced pneumonia mice (ELISA). The conditions noted are these: dosage 50 (mg/ml), i.v. Format: in vivo, ICR mice. The protocol: as §1
(1) Sample Collection and Storage: Tissue homogenate samples: The lung tissues of mice were collected and weighed, including those from mice numbered 1, 2, 3, 6, 7, and 8 in each group. The tissues were stored at […] An ultrasonic cell disruptor was used to homogenize the tissues, followed by centrifugation at […] and 1000 r/min for 10 minutes using a low-temperature high-speed centrifuge. The supernatant was then collected, aliquoted, and stored at −80° C. for future use, avoiding repeated freeze-thaw cycles.
(2) The microwell plate, which had been equilibrated to room temperature, was removed from the sealed bag. Different concentrations of standards, experimental samples, or quality control samples were added to the corresponding wells, with 100 μL per well. The reaction wells were sealed with sealing tape and incubated at room temperature for 2 hours. The plate was then washed with wash buffer, repeating the operation four times. After the final wash, the plate was inverted and all residual liquid was patted dry on absorbent paper. Next, 100 μL of enzyme-labeled detection antibody was added to each microwell. The reaction wells were sealed again with sealing tape and incubated at room temperature for another 2 hours. The washing step was repeated as described above. Then, 100 μL of substrate solution was added to each microwell and incubated at room temperature for 30 minutes, protected from light. Within 30 minutes after adding 100 μL of stop solution to each microwell, the absorbance at 450 nm was measured using a microplate reader. The results were then calculated.

Where [9] appears, read: 42 mg/kg administration by gavage, first batch.
The mark [10] stands for this setting: 42 mg/kg administration by gavage.

Turning to `CC[C@H]1OC(=O)[C@H](C)[C@@H](O[C@H]2C[C@@](C)(OC)[C@@H](O)[C@H](C)O2)[C@H](C)[C@@H](O[C@@H]2O[C@H](C)C[C@H](N(C)C)[C@H]2O)[C@](C)(O)C[C@@H](C)CN(C)[C@H](C)[C@@H](O)[C@]1(C)O` [Azithromycin, azithromycin, reference compound], in assay [1], the “Inflammatory Factor Levels in Lung Tissue IL-1β” value is listed as 144.98 ± 15.93 pg/mL, the “Inflammatory Factor Levels in Lung Tissue IL-6” value is 85.26 ± 25.59 pg/mL and the “Inflammatory Factor Levels in Lung Tissue TNF-α” value is reported as 345.86 ± 53.85 pg/mL. In addition, in assay [2], the “Alveolitis Lesion Degree” value was determined as 59.70, the “Bronchial Damage” value was determined as 54.80, the “Histological Damage Degree” value worked out at 2.43 ± 0.32 and the “Interstitial Inflammatory Cell Infiltration” value is reported as 58.80. In assay [3] (setting [9]), the “First Batch Inhibition Rate” value is on record as 65.93 and the “First Batch Lung Index” value came out at 0.77 ± 0.05. Moreover, in assay [3] (setting [10]), the “Second Batch Inhibition Rate” value worked out at 98.72 and the “Second Batch Lung Index” value is listed as 0.62 ± 0.09. Also, in assay [3] (injection administration), the “Second Batch Inhibition Rate” value worked out at 98.26 and the “Second Batch Lung Index” value amounted to 0.62 ± 0.06.

Turning to `CCN(CC)CCCC(C)Nc1ccnc2cc(Cl)ccc12` (stereo not drawn) [Chloroquine, Chloroquine Phosphate, reference compound], in assay [4], the “Inhibition Rate (lung index)” value amounted to 42.72% and the “Lung Index” value was 0.80 ± 0.05 g lung weight × 100 g/body weight. In assay [5], the “Inhibition Rate (lung index)” value amounted to 96.56% and the “Lung Index” value is 0.73 ± 0.11 g lung weight × 100 g/body weight.

Regarding `NC(=O)c1ncn([C@@H]2O[C@H](CO)[C@@H](O)[C@H]2O)n1` [Ribavirin, reference compound], in assay [6], the “Inhibition Rate (viral load)” value amounted to 69.54% and the “Viral Load in lung tissue” value was determined as 17063.48 ± 16203.78 copies/ng.

In the case of `CC(C)(C)C(=O)Oc1ccc(S(=O)(=O)Nc2ccccc2C(=O)NCC(=O)O)cc1` [Sivelestat Sodium, reference compound], the “Inhibition Rate (lung index)” value in assay [7] is reported as 85.50. In addition, in assay [7] (6 h after LPS), the “Lung Index” value was 0.86 ± 0.07 g/100 g body weight. In addition, in assay [8], the “Inflammatory Factor Levels in Lung Tissue IL-6” value is listed as 15.79 ± 2.08 pg/mL, the “Inflammatory Factor Levels in Lung Tissue IL-10” value came out at 36.11 ± 4.87 pg/mL and the “Inflammatory Factor Levels in Lung Tissue TNF-α” value was determined as 98.88 ± 11.21 pg/mL.
